A short description of the series: Human HepG2 cell viability assay in 384 well format. It is filed as toxicity, cell-based. Also on record: dose 125 nL, time 70.5 hour; cytotoxicity at 70.5 h: concentration not given beside the values. The note with it: HepG2 cells, read-out: Inhibition.
For `Cc1ncc(-c2ccnc(NCCO)n2)c(C2CCCCC2)n1`, the cytotoxicity at 70.5 h was determined as 21.9%.

Consider `CC1(c2ccccc2)CCC(=O)N(CCN2CCOCC2)C1` (stereo not given), for which the cytotoxicity at 70.5 h was -5.69%.

On to `CN(C(=O)CC1=CCCCC1)C1CCCN(CCc2ccccc2)C1` (stereo not given), for which the cytotoxicity at 70.5 h was -5.66%.

Regarding `CCC(=O)Nc1cccc(OCC(=O)N(C)Cc2cc(COC)[nH]n2)c1`, the cytotoxicity at 70.5 h is -4.96%.

With `CC(=O)Nc1ccc(CNCc2cccnc2N(C)C)cc1`, the cytotoxicity at 70.5 h turned out to be 1.4%.

For the compound `Cc1cccc(C2CCCN(C(=O)C3CCN(CC(N)=O)CC3)C2)c1` (stereo not given), the cytotoxicity at 70.5 h was -17.7%.

As for `Cc1ccc(C2(O)CCN(Cc3nnc(-c4cccnc4)o3)CC2)nc1`, the cytotoxicity at 70.5 h was -2.19%.

Turning to `Cc1ccccc1CC1(C(=O)O)CCCN(c2ncccn2)C1` (stereo not given), the cytotoxicity at 70.5 h is -7.63%.

`NC(=O)Cn1ccnc1C1CCCN(CCSc2ccccc2)C1` (stereo not given): the cytotoxicity at 70.5 h was -12.6%.

Consider `Cc1cc(F)ccc1OC1(C(=O)O)CCN(Cc2nccn2C)CC1`, for which the cytotoxicity at 70.5 h is -7.09%.

With `Cc1ncsc1CN1CC(C)(C2CC2)CC1=O` (stereo not given), the cytotoxicity at 70.5 h is -12.2%.

For `Cc1ccc(Cl)c(CN2CCN(C)C(C(=O)O)C2)c1F` (stereo not given), the cytotoxicity at 70.5 h is -5.85%.

Take `COc1ccc(F)c(CN2CCCC(O)(CNCc3ccon3)C2=O)c1` (stereo not given): the cytotoxicity at 70.5 h was determined as 8.61%.

With `N#Cc1cccc(N2CCC(c3nccn3Cc3cscn3)CC2)n1`, the cytotoxicity at 70.5 h was -2.31%.

With `O=C(N[C@@H]1CCNC[C@H]1O)c1ccc(-c2ccc(F)cc2)cc1`, the cytotoxicity at 70.5 h is -1.9%.

As to `Cc1ccc(-n2ccnc2-c2cn(C3CCNCC3)nn2)c(Cl)c1`, the cytotoxicity at 70.5 h was determined as 2.06%.

Take `Cc1cc(C)n(Cc2cc(C(=O)N[C@H]3CCCCNC3=O)n[nH]2)n1`: the cytotoxicity at 70.5 h was -3.71%.

Consider `CCNc1ccnc(N2CCN(Cc3ncccc3C)CC2)n1`, for which the cytotoxicity at 70.5 h came out at 3.6%.

Consider `CCCn1nc(C)c(CN2CC3(CCOC3)CCC2=O)c1C` (stereo not given), for which the cytotoxicity at 70.5 h is -8.62%.

`Cc1ccc(OC2(C(=O)O)CCN(C(=O)c3ccccc3F)CC2)cn1`: the cytotoxicity at 70.5 h is -3.34%.

For the compound `CN(C)c1nc(NCCc2ccccn2)ncc1F`, the cytotoxicity at 70.5 h turned out to be 25.5%.

For the compound `CN1CCN(Cc2c(Cl)ccc(O)c2Cl)CC1C(=O)O` (stereo not given), the cytotoxicity at 70.5 h was -16.7%.

Consider `CN1CCN(C[C@@H]2CN(C(=O)CCc3cn[nH]c3)C[C@@H]2CO)CC1`, for which the cytotoxicity at 70.5 h is -6.13%.

In the case of `CN1CCN(C2CCCC2)C(CCO)C1` (stereo not given), the cytotoxicity at 70.5 h is -1.81%.

`COc1ccccc1OC1CN(c2ccncc2)C1`: the cytotoxicity at 70.5 h is -4.23%.

On to `CC(C)n1ccnc1C1CCCN(c2cncc(N(C)C)n2)C1` (stereo not given), for which the cytotoxicity at 70.5 h came out at 2.84%.

As for `Cn1c(Cn2ncc(N3CCCCC3)cc2=O)nc2ccccc21`, the cytotoxicity at 70.5 h was determined as 44.3%.

Regarding `COC(=O)[C@@H](Nc1nc(C2CCCC2)nc2c1cnn2C)[C@@H](C)O`, the cytotoxicity at 70.5 h is -11.8%.

As to `CNc1cc(C)nc(N2CCC3(CC2)[C@H](O)C[C@@H]3OCCN(C)C)n1`, the cytotoxicity at 70.5 h is -1.9%.

Regarding `Cc1n[nH]c(C)c1CCNC(=O)C1CCCN(Cc2ccco2)C1` (stereo not given), the cytotoxicity at 70.5 h worked out at 9.52%.

Take `CC[C@H](C)[C@@H](CO)NC(C)Cc1ccc(C)cc1` (stereo not given in full): the cytotoxicity at 70.5 h was -2%.

As for `CC(=O)c1ccc(N2CCC3(CCC(=O)N(CCCO)C3)CC2)nc1`, the cytotoxicity at 70.5 h came to 3.25%.

As for `CN1CCN(c2cc(Sc3cccs3)nc(N)n2)CC1CCO` (stereo not given), the cytotoxicity at 70.5 h was -7.97%.

`Cc1c[nH]c(CN2CC[C@@]3(O)CCN(C(=O)C4CCCC4)C[C@H]3C2)n1`: the cytotoxicity at 70.5 h is 19.2%.

Take `CCC(NC1Cc2ccccc2C1)c1ccc(S(C)(=O)=O)cc1` (stereo not given): the cytotoxicity at 70.5 h is -14.8%.

Take `Cc1csc2c(=O)n(CCSc3cnn[nH]3)cnc12`: the cytotoxicity at 70.5 h was -7.83%.

On to `CCn1cnc(NC(=O)N2CCCC(c3ccccc3)CC2)n1` (stereo not given), for which the cytotoxicity at 70.5 h was -6.51%.

Take `COCCNC(=O)[C@H]1C[C@@](CC(C)C)(C(=O)O)N(C)[C@H]1c1cccnc1`: the cytotoxicity at 70.5 h came out at 1.74%.

Turning to `Cc1cccc2nc(C(=O)N3CCC4(CCC(=O)N(C)C4)CC3)c(F)n12`, the cytotoxicity at 70.5 h was -11.3%.

As for `Cn1cc(CN(C(=O)c2ccc3ncsc3c2)C2CC2)cn1`, the cytotoxicity at 70.5 h is 19.6%.

Take `COc1ccccc1OCc1cc(C(=O)N2CCC(NC(C)=O)C2)n[nH]1` (stereo not given): the cytotoxicity at 70.5 h worked out at 2.49%.

For `Cc1noc(C)c1C(=O)N1CCC2(CC1)c1nc[nH]c1CCN2C`, the cytotoxicity at 70.5 h was -3.9%.

On to `CC(C(=O)N1CCN(CCOc2ccccc2)CC1)n1cc(Cl)cn1` (stereo not given), for which the cytotoxicity at 70.5 h is -9.22%.

As for `CCc1cc(N(C)Cc2ccno2)n2nc(C)c(C)c2n1`, the cytotoxicity at 70.5 h is -2.75%.

Turning to `O=C(O)C1(Oc2cccc(F)c2)CCN(c2ccncc2)CC1`, the cytotoxicity at 70.5 h was -0.0629%.

With `CC(C)c1cc(N2CCC(C(C)N3CCCC3)CC2)n2nccc2n1` (stereo not given), the cytotoxicity at 70.5 h was -3.16%.

On to `COCCCC1(CO)CCCN(Cc2cccc(C#N)c2)C1` (stereo not given), for which the cytotoxicity at 70.5 h was -5.8%.

As for `CC(C)(C)CNCC1(O)CCCN(Cc2ccccc2F)C1=O` (stereo not given), the cytotoxicity at 70.5 h is 0.716%.

`NC(=O)C1CN(c2ncnc3c2Cc2ccccc2OC3)CCO1` (stereo not given): the cytotoxicity at 70.5 h was -3.79%.

Turning to `CN(Cc1ccncn1)c1nccc(CCC(F)(F)F)n1`, the cytotoxicity at 70.5 h turned out to be 23%.

Consider `Fc1cc(Cl)cnc1N1CCCC(c2nccn2Cc2ccccn2)C1` (stereo not given), for which the cytotoxicity at 70.5 h worked out at 10.1%.

As to `CSCCc1n[nH]c2c1CN(S(=O)(=O)c1c(C)nn(C)c1C)CC2`, the cytotoxicity at 70.5 h came to 17.2%.

In the case of `COc1ccnc(CN2CCCC(CCc3ccccc3)C2)c1OC` (stereo not given), the cytotoxicity at 70.5 h stood at 3.51%.

For the compound `Cc1ccc2cc(C3(O)CCN(C)CC3)ccc2n1`, the cytotoxicity at 70.5 h was -0.603%.

For `O=C(c1ccncc1)N1C[C@@H]2CC[C@H](C1)N(S(=O)(=O)c1cccnc1)C2`, the cytotoxicity at 70.5 h is -5.9%.

Turning to `CCC(C(=O)N(C)Cc1cc(COC)[nH]n1)n1cccn1` (stereo not given), the cytotoxicity at 70.5 h was -11.5%.

Regarding `CCNC(=O)C1CN(Cc2c(-c3cc(C)on3)nn(C)c2Cl)CCO1` (stereo not given), the cytotoxicity at 70.5 h turned out to be 2.76%.

On to `O=C(c1cccc(Oc2ccccc2)c1)N1CCCC(O)(CO)CC1` (stereo not given), for which the cytotoxicity at 70.5 h is -8.12%.

Consider `Cc1ccc(CN2CCOCS2(=O)=O)cc1F`, for which the cytotoxicity at 70.5 h is -9.79%.

Regarding `CCn1nc(C)c(CCNC(=O)C2CCCN(C(N)=O)C2)c1C` (stereo not given), the cytotoxicity at 70.5 h was found to be 19.9%.

As to `COc1ccc(C(C(=O)O)N(C)Cc2c(C)nn(C)c2C)c(C)c1` (stereo not given), the cytotoxicity at 70.5 h is -10%.

Consider `CCN(Cc1noc(C2CC2)n1)C(=O)c1onc2ccccc12`, for which the cytotoxicity at 70.5 h is -8.65%.

For the compound `O=C(c1n[nH]cc1Cl)N1CCOC(Cc2cccc(C(F)(F)F)c2)C1` (stereo not given), the cytotoxicity at 70.5 h was -4.63%.

Take `CC(C)c1cc(N2CCSCC2)n2nccc2n1`: the cytotoxicity at 70.5 h was determined as 19.1%.

Turning to `COc1ccc(CN2CCN(C(=O)N(C)C)[C@@H]3CS(=O)(=O)C[C@@H]32)cc1F`, the cytotoxicity at 70.5 h was 4.21%.

For the compound `CCN1CCCC(c2c(-c3ccccc3)ncn2Cc2cccnc2)C1` (stereo not given), the cytotoxicity at 70.5 h is -9.92%.

Consider `COCCN1CCCC(O)(CN2CCCN(c3ncccn3)CC2)C1=O` (stereo not given), for which the cytotoxicity at 70.5 h came out at 2.84%.

On to `CN(C)CC1(O)CCN(C(=O)c2ccc(-n3cccn3)cc2Cl)C1` (stereo not given), for which the cytotoxicity at 70.5 h turned out to be 5.18%.

`O=c1cc(CN2C[C@H]3CC[C@@H]2CN(Cc2ccccc2)C3)[nH]c(=O)[nH]1`: the cytotoxicity at 70.5 h came to 2.22%.

Turning to `O=C(NC1CCOC1)c1cccc(S(=O)(=O)NCCCc2ncc[nH]2)c1` (stereo not given), the cytotoxicity at 70.5 h was -13.4%.
